Assay results published in patent US7842683B2, “Neurotherapeutic compositions and method” (Revaax Pharmaceuticals, LLC, priority 1999, dated 2010).

Legend:
male golden hamsters = test: Resident/intruder paradigm of offensive aggression; assay type: in vivo, Syrian golden hamsters (Mesocricetus auratus)
Description: Male Syrian golden hamsters (Mesocricetus auratus) (140-150 g) obtained from Harlan Sprague-Dawley Laboratories (Indianapolis, Ind.) were housed individually in Plexiglas cages (24 cm×24 cm×20 cm), maintained on a reverse light:dark cycle (14L:10D; lights on at 19:00 hr) and provided food and water ad libitum. Animals were acclimated to the reverse light:dark cycle for at least two weeks before testing. All behavioral tests were conducted during the dark phase of the circadian cycle. All animals were acquired and cared for in accordance with the guidelines published in the Guide for the Care and Use of Laboratory Animals (National Institutes of Health Publications No. 85-23, Revised 1985).
(§1) Agonistic behavior can be classified as either offensive or defensive aggression (Blanchard and Blanchard, 1977; Adams, […]; Albert and Walsh, 1984). Offensive aggression is characterized by the aggressor initiating an attack on an opponent, while defensive aggression lacks active approach. Both types of aggression have their own unique neurobehavioral systems. The stimuli that elicit offensive and defense attack are different, as are the sequences of behaviors that accompany each agonistic response. […] Offensive aggression is easily studied using male golden hamsters tested in a resident/intruder paradigm, an established model of offensive aggression (Ferris and Potegal 1988). Placing an unfamiliar male hamster into the home cage of another male hamster elicits a well-defined sequence of agonistic behaviors from the resident that includes offensive aggression.
(§2) Hamsters are nocturnal and as such all behavioral tests were performed during the first four hrs of the dark phase under dim red illumination. The resident was scored for offensive aggression, e.g., latency to bite the intruder, the total number of bites, total contact time with the intruder and flank marking over a 10 min test period (Ferris and Potegal, 1988). Flank marking is a form of olfactory communication in which a hamsters arches its back and rubs pheromone producing flank glands against objects in the environment (Johnson, 1986).
Parametric data, i.e., latencies and contact time, were analyzed with a one-way ANOVA followed by Newman-Keuls post hoc tests. Non parametric data, i.e., number of bites and flank marks, were analyzed with Kruskal-Wallis tests followed by Mann-Whitney U tests to determine differences between groups. Two sample comparisons were analyzed with paired and unpaired t-Tests for parametric data and Wilcoxon and Mann-Whitney Tests for paired and unpaired non-parametric data, respectively.
as §1, with “by an” for “by the”, “an opponent; while,” for “an opponent, while”, “Potegal 1988) in the context of defending the home burrow.” for “Potegal 1988).”
as §2, with “Flank marking is a form of olfactory communication in which a hamsters arches its back and rubs pheromone producing flank glands against objects in the environment (Johnson, 1986).” left out

[1] = in vivo; cited from earlier work
[2] = high dose ca. 5 mg/kg, 9 mM, IP
[3] = high dose ca. 5 mg/kg, 9 mM, IP, 90 min

SMILES	aggressive behavior (male golden hamsters; 1 mg/kg (ca. 2 mM) IP, 90 min)	contact time (male golden hamsters; equimolar (90 μM) IP, 90 min)	flank marking (male golden hamsters; equimolar (90 μM) IP, 90 min)	number of bites (male golden hamsters; equimolar (90 μM) IP, 90 min)	latency to bite (male golden hamsters; equimolar (90 μM, equal to 50 μg/kg Mox) IP, 90 min)	contact time (male golden hamsters; [2])	flank marking (male golden hamsters; [2])	latency to bite (male golden hamsters; [3])	number of bites (male golden hamsters; [3])	blood-brain barrier transport / CNS penetrability [1]
CC1(C)S[C@@H]2[C@H](NC(=O)[C@H](N)c3ccc(O)cc3)C(=O)N2[C@H]1C(=O)O [Amox, Amoxicillin]	not significantly altered	no significant treatment effect	no significant treatment effect	–	–	–	–	–	–	–
CC1(C)S[C@@H]2[C@H](NC(=O)[C@H](N)c3ccccc3)C(=O)N2[C@H]1C(=O)O [Amp, Ampicillin]	–	no significant treatment effect	no significant treatment effect	significantly reduced	significantly delayed	no significant treatment effect	no significant treatment effect	significantly delayed	significantly reduced	–
CC1(C)S[C@@H]2[C@H](NC(=O)C(C(=O)O)c3ccccc3)C(=O)N2[C@H]1C(=O)O (stereo partly shown) [Carb, Carbenicillin]	–	no significant treatment effect	no significant treatment effect	–	–	no significant treatment effect	no significant treatment effect	significantly delayed	significantly reduced	–
CO[C@@]1(NC(=O)Cc2cccs2)C(=O)N2C(C(=O)O)=C(COC(N)=O)CS[C@@H]21 [Cef, Cefoxitin]	–	no significant treatment effect	no significant treatment effect	–	–	no significant treatment effect	no significant treatment effect	–	–	poor CNS penetrability
